Entries after “also recorded” stand apart in the source; their conditions may differ.
Assays:
[1] = Glioma tissue concentration after high-dose intravenous delivery (Whittle et al.); assay type: in vivo
[2] = cited from earlier work
[3] = Prolonged intracranial (brainstem) carboplatin infusions in primates (Strege et al.); assay type: in vivo
[4] = single brainstem infusions, concentrations as high as 1 mg/ml; cited from earlier work
[5] = system: synaptophysin; assay: Synaptophysin ELISA of rat brain homogenates after carboplatin infusion; assay type: in vivo; details: 72 hours after infusion
Description: Brain tissue homogenates were prepared from dissected samples of unfixed frozen hemispheres from rats at 72 hours after infusion of either artificial CSF (control) or carboplatin at concentrations of 0.36 and 0.72 mg/ml. Tissue samples incorporating the overlying cerebral cortex (approximately 200 mg) were dissected and homogenised for 75 s using a Precellys 24 automated tissue homogeniser (Stretton Scientific) with 2.3 mm silica beads (Biospec) in 1% SDS, 10 mM tris base (pH 6.0), 0.1 mM sodium chloride, and the protease inhibitors aprotinin (1 μg/ml; Sigma) and PMSF (10 μM; Sigma). The resultant crude tissue homogenates were centrifuged at 13,000 rpm for 15 min at 4° C., and the supernatants aliquoted and stored at −80° C.
Ninety-six-well plates (Nunc Maxisorp) were coated with primary rabbit anti-synaptophysin polyclonal antibody (Abeam) at a concentration of 1 μg/ml, and incubated overnight at 4° C. After 5 washes with wash buffer, non-specific binding was blocked with the addition of 1% BSA/PBS for 2 hours. After 5 washes with wash buffer, serial dilutions of recombinant synaptophysin or the supernatant of crude homogenates were added to wells in triplicate, and incubated at room temperature for 2 hours. […] Plates were read in a microplate reader at 405 nm (BMG Labtech).

[6] = Carboplatin toxicity in rat brain after CED (clinical, H&E, GFAP, DiI); assay type: in vivo
Description: Male Wistar rats (Charles River, UK) were group-housed and allowed to acclimatise prior to experimental procedures. Rats weighing 225 to 275 g were anaesthetised with an intraperitoneal dose of medetomidine (Dormitor; 0.4 mg/kg; Pfizer Animal Health, Kent, UK) and ketamine (Ketaset; 100 mg/kg; Pfizer, UK) and placed in a stereotactic frame (Stoelting Co, Wood Dale, Ill. USA). A linear incision was made between the glabella and the occiput and the skull exposed. Burr holes with a diameter of approximately 2 mm were drilled 1.0 mm anterior and 2.5 mm lateral to the bregma and cannulae were inserted to a depth of 2.5 mm below the dura. All cannulae were pre-primed with either saline or carboplatin and the desired dose prior to insertion into the brain. Every attempt was made to ensure that no air bubbles were present in the infusion cannula. Infusions of 2.5 μl of carboplatin at specific concentrations (outlined in Table 1) were conducted at a rate of 5 μl/min. Following infusion completion, the cannula was left in-situ for 10 min before being withdrawn at a rate of 1 mm/min. The wound was then closed with 5.0 Vicryl (Ethicon, Gargrave, UK) a dose of intramuscular buprenorphine was administered (Vetergesic; 0.03 mg/kg; Alstoe Animal Health, York, UK) and the anaesthetic was reversed with an intraperitoneal dose of atipamezole hydrochloride (Antisedan; 5 mg/kg; Pfizer, UK). At predetermined time-points (see Table 1), animals were perfusion fixed with 100 mL of PBS followed by 100 mL of 4% paraformaldehyde (PFA; Fisher Scientific, UK) in PBS (pH 7.4). The brain was then removed from the skull and placed in 4% PFA for 48 hours and then cryoprotected in 30% sucrose (Melford Laboratories, Ipswich, UK) in PBS prior to sectioning.
Rat brains were cut into 35 μm thick coronal sections using a Leica CM1850 cryostat (Leica Microsystems, Wetzlar, Germany) at −20° C. For haematoxylin and eosin staining, fixed sections were mounted on gelatine-subbed slides. Sections were submerged in 4% PFA for 20 minutes, dehydrated and then stained with haematoxylin and eosin (Cell Path, Hemel Hempstead, UK) according to standard protocols. Following this, sections were coverslipped with Pertex mounting medium (Cell Path, UK) and allowed to dry in the fumehood overnight before imaging with a Leica CTR 5500 microscope (Leica Microsystems, Germany). Sections were assessed by light microscopy to ensure that the cannula track in each brain terminated in the corpus callosum.
For fluorescent immunohistochemistry, free-floating sections were washed with PBS for 5 min×3. Sections were then blocked in PBS plus 0.1% triton-x-100 (Sigma Aldrich, UK) containing 10% normal donkey serum (Sigma Aldrich, UK) for 1 hour at RT. Sections were then washed with PBS for 5 min. […]

[7] = high-dose intravenous delivery; cited from earlier work
[8] = up to 0.9 mg/ml, vs 0.9% saline

In the case of `N.N.O=C([O-])C1(C(=O)[O-])CCC1.[Pt+2]` [carboplatin], the “peak glioma tissue concentration as share of IC50 (meta-analysis of chemosensitivity assays)” value [1] is given as 40%, the serum concentration ([2]; intracranial infusions of 0.25 mg/kg in primates) is given as 6 ng/mL and the clinical toxicity ([2]; one-month long brainstem infusions, 0.075 mg/kg) is given as “minimal clinical evidence of toxicity”. The “lowest concentration likely to lead to significant toxicity” value ([3]; extrapolated from Strege et al, assuming patient weight of 70 kg) was 0.22 mg/mL, the “ratio of serum concentration, intravenous in humans vs intracranial in primates” value ([3]; in vivo, iv) was “more than 5 thousand” and the histological tissue damage [4] was “without histological evidence of tissue damage”. For the same compound, the “reduction in synaptophysin (indicative of toxicity)” value ([5]; 0.36 mg/ml) was “not at 0.36 mg/ml”, the “reduction in synaptophysin (indicative of toxicity)” value ([5]; 0.72 mg/ml) was “observed at 0.72 mg/ml” and the “histological tissue toxicity (haematoxylin and eosin)” value ([6]; 0.03-0.9 mg/ml, up to 30 days) was “no histological evidence of tissue disruption; also recorded: No evidence of tissue toxicity”. For the same compound, the “clinical tolerability / toxicity” value ([6]; single CED infusions, concentrations of up to 0.9 mg/ml) was “well tolerated; also recorded: no clinical or histological evidence of toxicity”, the “gliosis in white matter (GFAP immunostaining)” value [6, 8] was “minimal evidence of gliosis” and the “white matter tract integrity (DiI staining)” value [6, 8] was “no loss of white matter tract integrity”. The “peak glioma tissue concentration” value [7] was 0.013 mg/mL.
